Test results taken from US8183242B2, “Aminopyrimidine compounds and their salts, process for preparation and pharmaceutical use thereof” (priority 2004, dated 2012).
Marks after values point to notes of the source that are not given here.

Legend:
[1] = system: transplant tumor of human granulocytic leukemia K562; assay: Test Example 2: therapeutic effect on naked mice with transplant tumor of human granulocytic leukemia K562; conditions: for Body weight before dissection d0 / TV x ± SD d0: d0 = grouping and first administration; for Body weight before dissection dn / TV x ± SD dn: dn = day 21; for CR: complete extinction (complete resolution) of tumor: end of experiment (Day 21), mice with CR/group; for mice in which the tumor was extinct: 75 mg/kg oral gavage once per day
Procedure: Animals were allowed to acclimatize the environment for one week, and then the animals were inoculated subcutaneously human leukemia K562 cells. When the tumors have grown to a volume of 100-300 mm^3, the animals were randomly grouped (d0). The naked mice were administered by oral gavage. […] The animals were administered once per day for 21 days. Measured the volume of the tumors 2-3 times per week and weighed the animals followed by recording the data. The formula for calculating the volume of tumor (V): V=½×a×b^2, wherein a represents the length and b represents the width.
The mice were continuously administered by oral gavage once per day for 21 days.

[2] = system: transplant tumor of human granulocytic leukemia K562; assay: Test Example 3: therapeutic effect of HH-GV-678 and Gleevec on naked mice with transplant tumor of human granulocytic leukemia K562; conditions: for Body weight before dissection d0 / TV x ± SD d0: d0 = grouping and first administration; for Body weight before dissection dn / TV x ± SD dn: dn = day 21; for CR: complete resolution: end of experiment, mice with CR/group
Source text: Animals were allowed to acclimatize the environment for one week, and then the animals were inoculated subcutaneously human leukemia K562 cells. When the tumors have grown to a volume of 100-300 mm^3, the animals were randomly grouped (d0). […] Measured the volume of the tumors 2-3 times per week and weighed the animals followed by recording the data. The formula for calculating the volume of tumor (V): V =1/2×a×b^2, wherein a represents the length and b represents the width.

[3] = system: human acute promyelocytic leukemia HL-60 cell; assay: MTT assay, inhibition of proliferation of HL-60 cells cultured in vitro (Bcr-Abl negative control model); format: cell-based; conditions: drug 48 h
Procedure: HL-60: human acute promyelocytic leukemia Cell. The expression of Bcr-Abl tyrosine kinase is negative.
(§1) Cells were grown in a medium containing 10% fetal bovine serum and were kept in the logarithmic growth phase.
(§2) The cells were pre-incubated in an incubator at 37° C. in 5% CO2 for 24 hours. The drug with 6 to 8 different concentrations was added and treated continuously for 48 h.
(§3) After the treatment of the drug, take photos by a phase contrast microscope. Then MTT treatment solution was added into each well and after 4 hours lysed the cells by DMSO. The OD values for each well were determined by using Plarstar ELIASA.
Concentration setting: 5-8 concentrations within the range of 0.001-10 μM were set, and each concentration is set in triplicate.

[4] = system: human chronic myelogenous leukemia K562 cell (expressing P210 Bcr-Abl tyrosine kinase); assay: MTT assay, inhibition of proliferation of K562 cells cultured in vitro
Procedure: as §1, §2, §3

[5] = 75 mg/kg oral gavage once per day 21 days
[6] = 150 mg/kg oral gavage once per day 21 days
[7] = 150 mg/kg each time, oral gavage twice per day 21 days
[8] = 37.5 mg/kg oral gavage once per day 21 days

Cc1ccc(NC(=O)c2ccc(CN3CCN(C)CC3)cc2)cc1Nc1nccc(-c2cccnc2)n1 [Gleevec, Imatinib, reference compound]
RTV x ± SD [1, 5]: 8.56 ± 7.09
T/C [1, 5]: 121.0%
Body weight before dissection d0 [1, 5]: 19.3 gram
TV x ± SD d0 [1, 5]: 153 ± 68 mm^3
Body weight before dissection dn [1, 5]: 15.6 gram
TV x ± SD dn [1, 5]: 971 ± 154 mm^3
CR: complete extinction (complete resolution) of tumor [1, 5]: 0/6
mice died ([1]; 150 mg/kg group, Day 18, death considered to be related to the tumor): 1/6
RTV x ± SD [1, 6]: 8.30 ± 5.65
T/C [1, 6]: 117.7%
Body weight before dissection d0 [1, 6]: 20.3 gram
TV x ± SD d0 [1, 6]: 127 ± 45 mm^3
Body weight before dissection dn [1, 6]: 16.3 gram
TV x ± SD dn [1, 6]: 824 ± 170 mm^3
CR: complete extinction (complete resolution) of tumor [1, 6]: 0/6
effect on the growth of the tumor ([1]; present protocol: 75 and 150 mg/kg oral gavage once per day 21 days): did not have significant effect on the growth of the tumor
T/C [2, 7]: 34.2* %
Body weight before dissection d0 [2, 7]: 24.1 gram
TV x ± SD d0 [2, 7]: 144 ± 33 mm^3
Body weight before dissection dn [2, 7]: 20.6 gram
TV x ± SD dn [2, 7]: 501 ± 347 mm^3
CR: complete resolution [2, 7]: 2/8
complete resolution (CR) of tumors, mice of the group ([2]; 150 mg/kg each time, oral gavage twice per day, Day 12): 1/8

CS(=O)(=O)O.Cc1ncc(NC(=O)c2ccc(CN3CCN(C)CC3)c(Cl)c2)cc1Nc1nccc(-c2cccnc2)n1 [HH-GV-E, 4-((4-methylpiperazin-1-yl)methyl)-N-[6-methyl-5-[[4-(pyrid-3-yl)pyrimidin-2-yl]amino]pyrid-3-yl]-3-chloro-benzamide methanesulfonic acid salt]
IC50 [3]: > 10 µM
RTV x ± SD [1, 5]: 9.60 ± 6.51
T/C [1, 5]: 103.6%
Body weight before dissection d0 [1, 5]: 18.5 gram
TV x ± SD d0 [1, 5]: 130 ± 58 mm^3
Body weight before dissection dn [1, 5]: 14.2 gram
TV x ± SD dn [1, 5]: 954 ± 242 mm^3
CR: complete extinction (complete resolution) of tumor [1, 5]: 0/6
RTV x ± SD [1, 6]: 3.24 ± 1.65
T/C [1, 6]: 47.4* %
effect on the growth of K562 tumor [1, 6]: significant inhibition effect on the growth of K562 tumor
Body weight before dissection d0 [1, 6]: 18.8 gram
TV x ± SD d0 [1, 6]: 149 ± 31 mm^3
Body weight before dissection dn [1, 6]: 15.2 gram
TV x ± SD dn [1, 6]: 455 ± 214 mm^3
CR: complete extinction (complete resolution) of tumor [1, 6]: 0/6
selectivity for the target ([4]; HL-60 versus K562 cells): > 125 folds
IC50 ([4]; Homo sapiens, K562, 48 h, read-out: IC50, inhibition of proliferation of leukemia cells): 0.08 µM

CS(=O)(=O)O.Cc1ncc(NC(=O)c2ccc(CN3CCN(C)CC3)c(C(F)(F)F)c2)cc1Nc1nccc(-c2cccnc2)n1 [HH-GV-F, 4-((4-methylpiperazin-1-yl)methyl)-N-[6-methyl-5-[[4-(pyrid-3-yl)pyrimidin-2-yl]amino]pyrid-3-yl]-3-(trifluoromethyl)-benzamide methanesulfonic acid salt]
IC50 [3]: ≥ 10 µM
RTV x ± SD [1, 8]: 2.85 ± 3.18
T/C [1, 8]: 40.4* %
effect on the growth of K562 tumor [1, 8]: significantly inhibited the growth of K562 tumor, but did not cause the tumor extinct
Body weight before dissection d0 [1, 8]: 19.3 gram
TV x ± SD d0 [1, 8]: 119 ± 51 mm^3
Body weight before dissection dn [1, 8]: 18.8 gram
TV x ± SD dn [1, 8]: 294 ± 255 mm^3
CR: complete extinction (complete resolution) of tumor [1, 8]: 0/6
RTV x ± SD [1, 5]: 1.38 ± 3.08
T/C [1, 5]: 19.6* %
Body weight before dissection d0 [1, 5]: 19.2 gram
TV x ± SD d0 [1, 5]: 127 ± 46 mm^3
Body weight before dissection dn [1, 5]: 19.3 gram
TV x ± SD dn [1, 5]: 95 ± 199 mm^3
CR: complete extinction (complete resolution) of tumor [1, 5]: 4/6
mice in which the tumor was extinct ([1]; Day 9): 1/6
mice in which the tumor was extinct ([1]; Day 12): 4/6
mice in which the tumor was extinct ([1]; Day 15): 5/6
RTV x ± SD [2, 5]: 0 ± 0
T/C [2, 5]: 0* %
Body weight before dissection d0 [2, 5]: 24.0 gram
TV x ± SD d0 [2, 5]: 168 ± 65 mm^3
Body weight before dissection dn [2, 5]: 24.7 gram
TV x ± SD dn [2, 5]: 0 ± 0 mm^3
CR: complete resolution [2, 5]: 7/8
complete resolution (CR) of tumors, mice of the group ([2]; 75 mg/kg oral gavage once per day, Day 6): 3/8
complete resolution (CR) of tumors, mice of the group ([2]; 75 mg/kg oral gavage once per day, Day 9): 7/8
complete resolution (CR) of tumors, mice of the group ([2]; 75 mg/kg oral gavage once per day, Day 12): 8/8
RTV x ± SD [2, 6]: 0 ± 0
T/C [2, 6]: 0* %
Body weight before dissection d0 [2, 6]: 24.3 gram
TV x ± SD d0 [2, 6]: 152 ± 37 mm^3
Body weight before dissection dn [2, 6]: 23.9 gram
TV x ± SD dn [2, 6]: 0 ± 0 mm^3
CR: complete resolution [2, 6]: 8/8
complete resolution (CR) of tumors, mice of the group ([2]; 150 mg/kg oral gavage once per day, Day 6): 6/8
complete resolution (CR) of tumors, mice of the group ([2]; 150 mg/kg oral gavage once per day, Day 9): 8/8
toxicity ([2]; mouse, in vivo): relatively lower
